From patent publication US20240122938A1, “METHODS AND COMPOSITIONS FOR TREATING UVEAL MELANOMA” (INSERM (INSTITUT NATIONAL DE LA SANTÉ ET DE LA RECHERCHE …, priority 2019, published 2024)

Assays:
92.1 cells = test: Cell death / apoptosis; type: cell-based, human; details: 92.1 cells; similar level as Mel270
Protocol: (§1) Cells were seeded at a density of 100 000 cells/well, in 6-well plate and treated with ABT-263 for indicated time. Cells were harvested using accutase enzyme, washed twice with ice-cold phosphate-buffered saline, resuspended in a buffer (Hepes 250 mM, NaCl 150 mM, KCl 5 mM, MgCl2 2 mM, CaCl2) 2 mM) with DAPI (1 μg/ml) and Annexin V-Alexa Fluor 647 conjugate (1/100) and incubated for 15 minutes at room temperature (25° C.) in the dark. Samples were immediately analyzed by a flow cytometer (MACS QUANT) using a laser at 405 nm excitation with a bandpass filter at 425 nm and 475 nm for DAPI detection and a laser at 635 nm excitation with a bandpass filter at 650 nm and 665 nm for Alexa Fluor 647 dye. Annexin and DAPI mono- or double positive cells were counted as dead cells.

[1] = single agent, phase I/II; cited from earlier work
metastatic cell lines = test: Colony formation assay; type: cell-based, human; details: metastatic versus primary cell lines; data not shown
Protocol: Human uveal melanoma cells were seeded onto 6-well plates. The cells were subsequently placed in a 37° C., 5% C02 incubator. Colonies of cells were grown before being stained with 0.04% crystal violet/2% ethanol in PBS for 30 min. Photographs of the stained colonies were captured. The colony formation assay was performed in duplicate.

[2] = test system: BCL-2 family members in metastatic OMM1 cells; test: Protein immunoblot of BCL-2 family members; type: cell-based, human
Protocol: (§2) Western blotting was performed as previously described 25,26. Briefly, cell lysates (30 μg) were separated using SDS-PAGE, transferred onto a PVDF membrane and subsequently exposed to the appropriate antibodies, anti-BCL2 (ms-123-PO) was from neomarker, anti-caspase 3 (#610323) was from BD, anti-BAX (#8429) was from sigma, anti-PARP (#9542), anti-BCL-XL (#2762), anti-caspase 9 (#9502) and anti-PUMA (#4976) were from Cell Signaling Technology Inc, anti-MCL1 (#sc-819), anti-NOXA (#56169), and anti-HSP90 (#sc-13119) were from Santa Cruz biotechnology. The proteins were visualized using the ECL system (Amersham).

NOXA in primary cells = test: Protein immunoblot of BCL-2 family members; type: cell-based, human; details: 24 h of treatment
Protocol: as §2

[3] = test system: metastatic uveal melanoma cells; test: Cell death by Annexin V/DAPI staining (flow cytometry); type: cell-based, human
Protocol: as §1

[4] = test system: primary uveal melanoma cell lines; test: as above; type: cell-based, human
Protocol: as §1

[5] = test system: CDK4, p27 and p21 in Mel270 cells; test: Western blot of cell cycle proteins; type: cell-based, human
Protocol: as §2, with “(Amersham). The western blots shown are representative of at least 3 independent experiments.” for “(Amersham).”

XBP1 splicing = XBP1 splicing (QRT-PCR); type: cell-based, human; details: both primary cells and metastatic OMM1 cells
Protocol: The mRNA was isolated using TRIzol (Invitrogen) according to a standard procedure. QRT-PCR was performed using SYBR® Green I (Eurogentec, Seraing, Belgium) and Multiscribe Reverse Transcriptase (Applied Biosystems) and subsequently monitored using the ABI Prism 7900 Sequence Detection System (Applied Biosystems, Foster City, CA). The detection of the SB34 gene was used to normalize the results. Spliced Xbp1 primers were previously reported27. Primer sequences for each cDNA were designed using either Primer Express Software (Applied Biosystems) or qPrimer depot (http://primerdepot.nci.nih.gov), and these sequences are available upon request.

[6] = test system: PARP, caspase 9 and caspase 3 in primary and metastatic uveal melanoma cells; test: Western blot of PARP and caspases; type: cell-based, human
primary melanoma cells = test: Cell proliferation assay; type: cell-based, human; details: data not shown
Protocol: (§3) Human uveal melanoma cell lines and short-term cultures derived from different patients with metastatic malignant melanoma cells were grown in DMEM supplemented with 7% FBS at 37° C. in a humidified atmosphere containing 5% CO2. Lipofectamine™ RNAiMAX and opti-MEM medium were purchased from Invitrogen (San Diego, CA, USA). ABT-263 was obtained from Euromedex and qVD from Clinisciences.

OMM1 cells = test: Cell proliferation assay; type: cell-based, human; details: OMM1 metastatic melanoma cells
Protocol: as §3

[7] = test system: OMM2,5 metastatic melanoma cells; test: Cell proliferation assay; type: cell-based, human
Protocol: as §3

[8] = test system: short-term cultures of primary uveal melanoma tumour; test: Cell death in short-term cultures; type: cell-based, human; details: data not shown
Protocol: Human uveal melanoma cell lines and short-term cultures derived from different patients with metastatic malignant melanoma cells were grown in DMEM supplemented with 7% FBS at 37° C. in a humidified atmosphere containing 5% CO2. Lipofectamine™ RNAiMAX and opti-MEM medium were purchased from Invitrogen (San Diego, CA, USA). ABT-263 was obtained from Euromedex and qVD from Clinisciences. Cells were seeded at a density of 100 000 cells/well, in 6-well plate and treated with ABT-263 for indicated time. Cells were harvested using accutase enzyme, washed twice with ice-cold phosphate-buffered saline, resuspended in a buffer (Hepes 250 mM, NaCl 150 mM, KCl 5 mM, MgCl2 2 mM, CaCl2) 2 mM) with DAPI (1 μg/ml) and Annexin V-Alexa Fluor 647 conjugate (1/100) and incubated for 15 minutes at room temperature (25° C.) in the dark. Samples were immediately analyzed by a flow cytometer (MACS QUANT) using a laser at 405 nm excitation with a bandpass filter at 425 nm and 475 nm for DAPI detection and a laser at 635 nm excitation with a bandpass filter at 650 nm and 665 nm for Alexa Fluor 647 dye. Annexin and DAPI mono- or double positive cells were counted as dead cells.

## CC1(C)CCC(c2ccc(Cl)cc2)=C(CN2CCN(c3ccc(C(=O)NS(=O)(=O)c4ccc(N[C@H](CCN5CCOCC5)CSc5ccccc5)c(S(=O)(=O)C(F)(F)F)c4)cc3)CC2)C1 [ABT-263, 4-[4-[[2-(4-chlorophenyl)-5,5-dimethyl-1-cyclohexen-1-yl]methyl]-1-piperazinyl]-N-[[4-[[(1R)-3-(4-morpholinyl)-1-[(phenylthio)methyl]propyl]amino]-3-[(trifluoromethyl)sulfonyl]phenyl]sulfonyl]-benzamide]
92.1 cells
  ABT-263-induced apoptosis with PERK knockdown: sensitized
[1]
  side effects: thrombocytopenia
Metastatic cell lines
  long-term growth inhibitory activity (colony formation): more sensitive
[2]; cell line not given
  BCL2 level: no change
[2]; metastatic OMM1 cells only
  expression of BCL-xL, MCL1, PUMA, BAX: reduced expression
NOXA in primary cells
  change in BCL-2 family proteins: increase in pro-apoptotic NOXA level
[3]
  cell death: 80%
[4]
  cell death: 20-35%
[5]
  cell cycle (reduced CDK4, increased p27 and p21): cell cycle arrest
XBP1 splicing
  XBP1 splicing: significantly higher
[6]; primary and metastatic cells
  cleavage of PARP, caspase 9 and caspase 3: dose-dependent cleavage
[6]; time course, data not shown
  full-length PARP protein and caspase 3 zymogen: time-dependent disappearance
Primary melanoma cells
  proliferation, response of primary melanoma cells: highly resistant
OMM1 cells
  proliferation: strongly reduced proliferation
[7]
  proliferation: strongly reduced proliferation
[8]
  killing effect: killing effect was also found
